Experimental findings from US20230272077A1, “PD-1 SIGNAL INHIBITOR COMBINATION THERAPY” (KYOTO UNIVERSITY, priority 2015, published 2023) are described below.

One test relates to tumor cells. Kind of test: Phenotypic and transcription profile analysis of tumor cells from mice treated with reagent alone. The following applies: tumor cells from mice treated with reagent alone in vivo. Also on record: species or system mouse. The source says: FIG. 12. […] After enzymatic digestion, tumor cells were sorted with a cell isolation kit capable of excluding non-tumor cells. The isolated tumor cells were further purified with Aria and used in the following experiments. b) Tumor cells were stained with antibodies targeting PD-L1, MHC class I, CD155 (ligand of TIGIT), and VISTA or with dyes for mitochondrial mass, membrane potential, and superoxide. c) Expression levels of genes associated with mitochondrial energy metabolism and apoptosis were examined using RT^2 profiler PCR Kit.
For analyzing draining lymph nodes, cells from axillary, brachial, and inguinal lymph nodes on the right side of tumor-inoculated mice were harvested and mixed. Averaged cell numbers per one lymph node were used as absolute cell numbers. For tumor analysis, tumor tissues were minced into 2- to 3-mm pieces with scissors and digested with collagenase type IV (Thermo Fisher Scientific) using a gentle MACS Dissociator (Miltenyi Biotec). The numbers of tumor cells per mg were used as absolute numbers. Tumor cells were isolated from digested tumor tissues using a Tumor Cell Isolation Kit, mouse (Miltenyi Biotec). This kit purifies tumor cells by excluding lymphocytes, red blood cells, fibroblasts, endothelial cells and tumor-associated stromal cells. The resultant tumor cell population was further isolated/purified with FACS Aria (BD Biosciences). […]

In test [1] the test system is mTOR and its associated proteins S6K and 4EBP1. Put plainly: Western blotting of DLN CD8+ T cells, mTOR pathway. The class given is in vivo, mouse. The following applies: CD8+ T cells from mice treated with PD-L1 antibody and reagent. Here is the method:
FIG. 7. […] Phosphorylation of AMPK, ACC, mTOR and S6K and the expression of SIRT1 and 4EBP1 were analyzed by Western blotting. b) MC38-bearing mice were treated with PD-L1 antibody in combination with AMPK activator (A769662) and/or mTOR activator (MHY1485) according to the same schedule as shown in FIG. 3b.
CD8^+ T cells were isolated using mouse CD8 Microbeads (Miltenyi Biotec). After washing with PBS twice, 2×10^6 cells were solubilized in a lysis buffer containing 30 mM Tris-HCl (pH.7.4), 150 mM NaCl, 10% glycerol, 0.1% SDS, 1% Triton-X-100, 0.05% Na-Doc, 5 mM EDTA (pH.8.0), protease inhibitor mixture (Roche Molecular Biochemicals) and phosphatase inhibitors (Nacalai Tesque). After measurement of protein concentrations by DC protein assay (Bio-Rad), 4 μg of proteins was mounted on 4 to 20% gradient Mini-PROTEAN TGX Gels (Bio-Rad) and electroblotted onto nitrocellulose membranes, which were then incubated in a blocking buffer of TBS containing 1% BSA. Primary antibody incubations were carried out overnight at 4° C. in blocking buffer. After washing, secondary antibody incubations were carried out at room temperature for 40 min in blocking buffer. Blots were developed with enhanced chemiluminescence (Amersham Pharmacia). […]

Another test relates to T-bet and Eomes. Put plainly: T-bet and Eomes expression by flow cytometry in DLN CD8+ T cells. The following applies: combined with PD-L1 antibody. It counts as in vivo, mouse. On the procedure: FIG. 15. […] Data represent the means±SEM of five mice. *p<0.05, **p<0.01, one-way ANOVA.
The following antibodies recognizing the indicated antigens were used: CD44 (1M7), CD45.2 (104), CD45.1 (A20), CD8 (53-6.7), CD62L (MEL-14), T-bet (4B/O) and IFN-7 (XMG1.2), MHC class I (AF6-88.5), CD155 (Tx56) and VISTA (MIH63) from BioLegend; p-AMPK (EPR5683) from Ancam; p-mTOR (MRRBY), Eomes (Danllmag) and PD-L1 (M1H5) from eBioscience. All flow cytometry experiments were performed on a FACS Canto II (BD Biosciences) and analyzed using FlowJo software (FLOWJO, LLC). For assessment of intracellular phosphoproteins, cells were permeabilized with 0.5% Triton-X and fixed with 1.5% PFA before staining. Determination of mitochondrial mass, membrane potential, mitochondrial superoxide and cellular ROS was performed using MitoTracker Green, Mito-Tracker Deep Red, MitoSOX Red, and CellROX Green reagents, respectively (all from Life Technologies). These dyes were added to cells to a final concentration of 0.125 μM, 0.125 μM, 5.0 μM and 0.625 μM, respectively, and incubated at 37° C. in a 5% CO2 humidified incubator for 30 min.
For orientation: A flow cytometer gives signals particle by particle.

SMILES strings stand for the structures. “Also recorded” adds a separate entry of the source.

Regarding `N#CC(C#N)=NNc1ccc(OC(F)(F)F)cc1` [FCCP, carbonyl cyanide p-trifluoromethoxyphenylhydrazone], in the test on tumor cells, the “changes in immune-regulatory surface markers and transcriptional profiles of tumor cells” value is listed as “did not show a significant difference; also recorded: little effect on tumor cells in vivo”. In test [1], the “activation of mTOR and its associated proteins S6K and 4EBP1” value is “also found to be activated”. Also, in the test on T-bet and Eomes, the Eomes expression entry is “not Eomes expression” and the T-bet expression entry is recorded as “increased T-bet expression; also recorded: up-regulated”.
